We go through 13 compounds from publication PMC9227305, “Photoinduced Synthesis of Methylated Marine Cyclopeptide Galaxamide Analogs with Isoindolinone as Anticancer Agents” (Marine Drugs, 2022).

Values joined by “and” are separate entries in the source; they are usually repeats but may differ in a detail not shown here. Identical values can stand only once. Like-named read-outs stand apart in the source and are kept apart here. *1 amine or outer side, *2 acyl side, *3 side chain or, on linkers, in order; H or OH if unused. Where a SMILES comes first, the peptide text is derived from it. [ ]: non-standard residue; d: D form. X1 = O=C1c2ccccc2[C@@](O)(CN(Cc2ccccc2)[*:1])N1CC(=O)[*:2]; X2 = O=C1c2ccccc2[C@](O)(CN(Cc2ccccc2)[*:1])N1CC(=O)[*:2]; NMeL = CN[C@@H](CC(C)C)C(=O)O; dNMeL = CN[C@H](CC(C)C)C(=O)O A value given as a limit tells only on which side of the number the result lay.

The conditions of series [1]: other bond; 21-membered ring; hv (450 W Hg lamp, Pyrex), SET photocyclization.
Another series has as its system MDA-MB-231 cells. Format: cell-based, human. The note with it: 48 h. The source says:
(§1) The antitumor activity of the prepared cyclic peptides against human hepatocellular carcinoma cells (HepG-2), human cervical cancer cell lines (HeLa) and human breast cancer cells (MDA-MB-231) was examined by MMT assay, and the mouse fibroblast L929 cells were used as the model cells to evaluate the toxicity of cyclopeptides to normal cell lines. Due to the absence of an authentic standard, taxol was chosen as a control because it is a widely used chemotherapeutic drug for the treatment of various cancers, including liver cancer.
(§2) Samples were dissolved in DMSO and diluted into different concentrations ([…], 18.75, 25, 37.5, 50, 75, 100 and 250 μM) and stored at 4 °C. Cells in the logarithmic growth phase were digested with trypsin and then seeded in 96-well plates at a density of 2 × 10^4 cells/well in 100 μL of culture medium. The cells were treated with different concentrations of the tested compound, and a blank control group without the drug was also set up. Six wells were repeated for each dose. After 48 h of co-incubation, MTT solution (100 μL, 0.5 mg/mL) was added, followed by incubation for another 4 h. After discarding the supernatant, 100 μL of DMSO was added per well, and the absorbance (OD) values were measured at 490 nm using an enzyme marker. Cell viability was calculated by the formula: Cell viability (%) = As/Ab × 100% (where As is the absorbance value of the experimental group and Ab is the absorbance value of the blank group). The obtained data were processed using SPSS19 software to obtain IC50 values.

For a further series, the system named is HepG-2 cells. The experiment in a line: cells.
Description: as §1, §2

The subject of another series is L929 cells. The experiment in a line: cells.
Description: as §1, §2

Series [2] has as its system renal carcinoma GRC-1 cell lines. On the set-up: method as in PMID 18816120. Conditions: cited from earlier work.
For series [3], the system named is human hepatocellular carcinoma HepG-2 cell lines. Details: method as in PMID 18816120. The note with it: cited from earlier work.

In turn, “3-Hydroxy-isoindolinone-cyclo-(Gly-Leu-N-Me-Leu-Leu-N-Me-Leu-Leu)” gave a ring closure, isolated yield in series [1] of 51%.
As for “3-Hydroxy-isoindolinone-cyclo-Gly-Leu-Leu-Leu-N-Me-Leu-Leu”, in series [1], the ring closure, isolated yield was 24% and 28%.
With “3-Hydroxy-isoindolinone-cyclo-Gly-Leu-N-Me-Leu-Leu-Leu-Leu”, the ring closure, isolated yield in series [1] is 25% and 23%.
For “3-Hydroxy-isoindolinone-cyclo-Gly-Leu-N-Me-Leu-Leu-N-Me-Leu-Leu”, the ring closure, isolated yield in series [1] is 48% and 43% and 45%.
`CC(C)C[C@@H]1C(=O)N[C@H](CC(C)C)C(=O)N(C)[C@H](CC(C)C)C(=O)N[C@H](CC(C)C)C(=O)N(Cc2ccccc2)C[C@@]2(O)c3ccccc3C(=O)N2CC(=O)N[C@H](CC(C)C)C(=O)N1C` [Compound 1, 3-Hydroxy-isoindolinone-cyclo-(Gly-Leu-N-Me-Leu-Leu-N-Me-Leu-Leu)] (cyclo([dNMeL][dL][dNMeL][dL][X2][dL])): the values for the IC50 in the series on MDA-MB-231 cells, in the series with HepG-2 cells (48 h) and in the series on L929 cells (48 h) were 59.3 ± 2.3 µM, 38.4 ± 2.2 µM and > 400 µM, respectively.
On to `CC(C)C[C@H]1NC(=O)[C@H](CC(C)C)N(C)C(=O)[C@@H](CC(C)C)NC(=O)[C@H](CC(C)C)N(C)C(=O)[C@@H](CC(C)C)NC(=O)CN2C(=O)c3ccccc3[C@]2(O)CN(Cc2ccccc2)C1=O` [Compound 2, 3-Hydroxy-isoindolinone-cyclo-Gly-Leu-N-Me-Leu-Leu-N-Me-Leu-Leu] (cyclo([NMeL][dL][NMeL][dL][X2][dL])), for which the IC50 in the series on MDA-MB-231 cells was 67.6 ± 3.3 µM; in the series on HepG-2 cells (48 h) it was 72.1 ± 5.8 µM; in the series with L929 cells (48 h), 364 ± 15.6 µM.
Take `CC(C)C[C@@H]1NC(=O)[C@@H](CC(C)C)N(C)C(=O)[C@H](CC(C)C)NC(=O)[C@@H](CC(C)C)N(C)C(=O)[C@H](CC(C)C)NC(=O)CN2C(=O)c3ccccc3[C@]2(O)CN(Cc2ccccc2)C1=O` [Compound 3, 3-Hydroxy-isoindolinone-cyclo-Gly-Leu-N-Me-Leu-Leu-N-Me-Leu-Leu] (cyclo([dNMeL]L[dNMeL]L[X2]L)): the values for the IC50 with MDA-MB-231 cells, in the series with HepG-2 cells (48 h) and in the series on L929 cells (48 h) were 73.2 ± 2.8 µM, 90.9 ± 7.69 µM and > 400 µM, respectively.
On to `CC(C)C[C@@H]1NC(=O)[C@H](CC(C)C)N(C)C(=O)[C@H](CC(C)C)NC(=O)[C@H](CC(C)C)N(C)C(=O)[C@H](CC(C)C)NC(=O)CN2C(=O)c3ccccc3[C@@]2(O)CN(Cc2ccccc2)C1=O` [Compound 4, 3-Hydroxy-isoindolinone-cyclo-Gly-Leu-N-Me-Leu-Leu-N-Me-Leu-Leu] (cyclo([NMeL]L[NMeL]L[X1]L)), for which the half-inhibitory concentration (IC50) with MDA-MB-231 cells came out at 95.3 ± 8.6 µM; in the series on HepG-2 cells (48 h), 81 ± 4.29 µM; in the series on L929 cells (48 h), 310 ± 20.1 µM.
`CC(C)C[C@@H]1C(=O)N[C@H](CC(C)C)C(=O)N[C@H](CC(C)C)C(=O)N[C@H](CC(C)C)C(=O)N(Cc2ccccc2)C[C@]2(O)c3ccccc3C(=O)N2CC(=O)N[C@H](CC(C)C)C(=O)N1C` [Compound 5, 3-Hydroxy-isoindolinone-cyclo-Gly-Leu-Leu-Leu-N-Me-Leu-Leu] (cyclo([dL][dL][X1][dL][dNMeL][dL])): the IC50 with MDA-MB-231 cells is 60.8 ± 8.2 µM; in the series on HepG-2 cells (48 h), 28.2 ± 6.2 µM; in the series on L929 cells (48 h) it was 153 ± 10.7 µM.
`CC(C)C[C@@H]1C(=O)N[C@H](CC(C)C)C(=O)N[C@H](CC(C)C)C(=O)N[C@H](CC(C)C)C(=O)N(Cc2ccccc2)C[C@]2(O)c3ccccc3C(=O)N2CC(=O)N[C@H](CC(C)C)C(=O)N1C` [Compound 6, 3-Hydroxy-isoindolinone-cyclo-Gly-Leu-N-Me-Leu-Leu-Leu-Leu] (cyclo([dL][dL][X1][dL][dNMeL][dL])): the IC50 with MDA-MB-231 cells worked out at 67.6 ± 2.3 µM; in the series with HepG-2 cells (48 h) it was 36.1 ± 2.2 µM; in the series with L929 cells (48 h), 120 ± 5.3 µM.
For `CC(C)C[C@@H]1NC(=O)[C@H](CC(C)C)NC(=O)[C@H](CC(C)C)N(C)C(=O)[C@H](CC(C)C)NC(=O)CN2C(=O)c3ccccc3[C@@]2(O)CN(Cc2ccccc2)C(=O)[C@H](CC(C)C)NC1=O` [Compound 7, 3-Hydroxy-isoindolinone-cyclo-Gly-Leu-Leu-Leu-N-Me-Leu-Leu] (cyclo(LL[X1]L[NMeL]L)), in that order: 112 ± 9 µM, 30.4 ± 1.6 µM and > 400 µM.
Turning to `CC(=O)O[C@H]1C(=O)[C@@]2(C)[C@H]([C@H](OC(=O)c3ccccc3)[C@]3(O)C[C@H](OC(=O)[C@H](O)[C@@H](NC(=O)c4ccccc4)c4ccccc4)C(C)=C1C3(C)C)[C@]1(OC(C)=O)CO[C@@H]1C[C@@H]2O` [Taxol, paclitaxel, reference compound], the IC50 with HepG-2 cells (Homo sapiens, HepG2, 48 h, read-out: IC50 HepG-2) was 40.9 ± 5.2 µM; in the series on L929 cells (Mus musculus, L929, 48 h, read-out: IC50 L929), 141 ± 9.3 µM.
Regarding “cyclo-(L-Leu-L-N-Me-Leu-L-Leu-L-Leu-L-N-Me-Leu-L-Leu) [galaxamide]”, the “in vitro antitumor activity” value in series [2] and in series [3] was “strong” in each case.

Usually IC50 stands for the concentration needed to halve the response being measured.
